molecular target: T1, α-synuclein fibrils isolated from an MSA patient sample (Homo sapiens, UniProt P37840); assay: Cryo-EM co-structures of compounds with α-synuclein fibrils from MSA patient; assay type: binding; details: fibrils from MSA patient sample; 20 μM ligand
T1 construct: fresh-frozen tissue from the cerebellum of patients clinically and neuropathologically diagnosed with MSA; from tissue; host or cells: cerebellum of MSA patients (sarkosyl-insoluble filament preparation)
Method: MSA filament purification. Filament purification was based on Schweigenhauser et al., 2020^2. Briefly, 1-2 g of fresh-frozen tissue from the cerebellum of patients clinically and neuropathologically diagnosed with MSA was homogenized at 20 mL/g of tissue in 10 mM Tris-HCl (pH 7.4), 800 mM NaCl, 1 mM EGTA, and 10% sucrose. A final concentration of 1% N-laurosarcosinate (w/v) was added to the homogenates, and these mixtures were incubated at 37° C. for 30 minutes. Homogenates were then centrifuged at 10,000 g for 10 minutes, and the supernatant was kept and then centrifuged at 100,000 g for 20 minutes. The pellets were resuspended at 500 μL/g of frozen tissue in 10 mM Tris-HCl (pH 7.4), 800 mM NaCl, 1 mM EGTA, and 10% sucrose. This was followed by another centrifugation at 3,000 g for 5 minutes. The supernatant was kept and diluted threefold with 50 mM Tris-HCl (pH 7.4), 150 mM NaCl, 10% sucrose, and 2% sarkosyl, followed by another centrifugation at 150,000 g for 1 hour. The final pellet resuspended in 30 mM Tris-HCl (pH 7.4) at a concentration of 100 μL/g frozen tissue.
Cryo-EM sample preparation and data collection. Purified frontal cortex and cerebellum tissue was incubated with 20 μM ligand for 45 minutes prior to freezing. For the tau PHF, 3 μL of purified filaments mixed with GTP-1 was added to a glow-discharged 200 mesh 1.2/1.3R Au Quantifoil grid for 10 seconds before blotting for 2 seconds, and then a second 3 μL aliquot was added for 3 seconds and blotted for 1 second before being plunge frozen in liquid ethane using a FEI Vitrobot Mark IV (Thermo Fisher Scientific). For the synuclein ligands, 3 μL of purified filaments mixed with compound was added to a 200 mesh 1.2/1.3R Au Quantifoil grid coated with a 2 nm thick layer of carbon, which had not been glow discharged. After 30 seconds, grids were blotted for 7.5 seconds at room temperature and 100% humidity. Grids were plunge frozen in liquid ethane using a FEI Vitrobot Mark IV. […] A defocus range of 0.8 to 1.8 μm was used with a total exposure time of 2.024 seconds fractionated into 0.025 seconds subframes. The total dose for each movie was 46 electrons/Å^2. Movies were motion-corrected using MotionCor2^3 in Scipion^4 and were Fourier cropped by a factor of 2 to a final pixel size of 0.834 Å per pixel.
Image processing. All image processing was done in RELION 4^5, and the same workflow was used for each dataset. Dose-weighted summed micrographs were imported into RELION 4. The contrast transfer function was estimated using CTFFIND-4.1^6. Filaments were manually picked and then segments were extracted with a box size of 900 pixels downscaled to 300 pixels. Contaminants and segments contributing to straight filaments were separated out using reference-free 2D class averaging. The remaining segments were re-extracted with a box size of 288 pixels without downscaling. An initial model was generated from a cylinder in RELION. One or more rounds of 3D classification with image alignment were performed, with helical rise and […] parameters fixed to eliminate obvious junk particles. One or more rounds of 3D auto-refinement was run using the best map from 3D classification low-pass filtered to 10 Å, allowing rise and twist parameters to vary. Maps were sharpened using the standard post-processing procedures in RELION.
Model building, refinement, and analysis. Prior to ligand placement, a single strand of a previously solved MSA or tau PHF filament structure^2 (PDB: 6XYQ) was refined against the density using Phenix^7. Refinement of the ligand binding pocket was done in COOT^8. Ligands were placed by hand in the density using Chimera^9. This model was then translated to give a stack spanning 5 rungs.

SMILES | binding to α-synuclein fibrils (cryo-EM co-structure)
Cc1nccc2cc(-c3nc(-n4ccc5cccnc5c4=O)c(-c4ccc(C(F)(F)F)cc4)o3)ccc12 [compound 427] | bound to fibrils isolated from an MSA patient sample
CNc1nc(=O)n(-c2nc(-c3cccc(Cl)c3)oc2-c2ccc(Cl)c(F)c2)cc1F [Compound 125, 1-(5-(4-chloro-3-fluorophenyl)-2-(3-chlorophenyl)oxazol-4-yl)-5-fluoro-4-(methylamino)pyrimidin-2(1H)-one] | bound to fibrils isolated from an MSA patient sample
CNc1nc(=O)n(-c2nc(-c3cccc(C)c3)oc2-c2ccc(Cl)c(F)c2)cc1F [Compound 83, 1-(5-(4-chloro-3-fluorophenyl)-2-(m-tolyl)oxazol-4-yl)-5-fluoro-4-(methylamino)pyrimidin-2(1H)-one] | bound to fibrils isolated from an MSA patient sample
O=C(Cn1cc(-c2ccoc2)c(=O)c2ccc(N3CCCC3)cc21)Nc1ccccc1C(F)(F)F [Compound 149, 2-[3-(furan-3-yl)-4-oxo-7-(pyrrolidin-1-yl)-1,4-dihydroquinolin-1-yl]-N-[2-(trifluoromethyl)phenyl]acetamide] | bound to fibrils isolated from an MSA patient sample

molecular target: T2, YFP-tagged full length 0N4R-Tau carrying a P301S mutation (T24 cells) (Homo sapiens, UniProt P10636, P618S); assay: Tau-AD high throughput screening (counter screen); assay type: cell-based; details: final test concentration of 10 μM; T24 cells transfected with 416-AD11A lysate; 72 h; control is DMSO
T2 construct: C-terminally YFP-tagged full length 0N4R-Tau carrying a P301S mutation (T24 cells); expressed in transfected cells
T2 sequence (P10636 1-383 isoform P10636-6 P243S): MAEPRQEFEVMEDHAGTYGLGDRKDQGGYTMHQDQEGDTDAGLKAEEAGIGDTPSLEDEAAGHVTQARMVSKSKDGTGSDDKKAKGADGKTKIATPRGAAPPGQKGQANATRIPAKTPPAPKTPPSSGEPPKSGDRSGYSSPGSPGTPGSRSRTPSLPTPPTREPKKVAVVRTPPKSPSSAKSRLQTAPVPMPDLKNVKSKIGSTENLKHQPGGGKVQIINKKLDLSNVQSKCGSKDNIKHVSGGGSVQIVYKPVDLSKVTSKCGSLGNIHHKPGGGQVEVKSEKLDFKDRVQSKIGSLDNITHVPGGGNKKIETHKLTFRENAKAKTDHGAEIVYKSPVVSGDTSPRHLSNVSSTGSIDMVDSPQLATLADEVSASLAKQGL
Method: A fragment of the Middle Tempral Gyrus (MTG) from Alzheimer's Disease (AD) patient 2217 was resuspended in 9 volumes of PBS (ml/g of brain) and homogenized 3×12 seconds using a probe homogenizer (Thomas Scientific) with disposable Omni Tip plastic homogenizing probes (Thomas Scientific Cat No 3409Y77) to generate a 10% brain homogenate (10% AD11-BH). The 10% AD11-BH was clarified of insoluble debris by centrifugation at 800×g for 5 minutes. The resulting supernatant was collected and the protein concentration of this clarified BH (AD11-CBH) was determined by bicinchoninic acid assay (BCA) (Thermo Fisher Cat No. 23227). HEK293 cells stably expressing a C-terminally Clover-tagged truncated 4R-Tau^243-382 transgene containing the P301L and V337M mutations and a C-terminally Ruby-tagged truncated 3R-Tau^243-382 transgene containing the L266V and V337M mutations (128/139 cells) were transfected with the AD11-CBH using lipofectamine 2000 (LF2K) (Thermo Fisher Cat No. 11668500). Briefly, 0.32 μl of LF2K were diluted in 5 μl Opti-MEM (Thermo Scientific Cat No 31985070) per well of a 384-well plate and incubated for 5 min at room temperature (RT). This mixture was added to 0.32 μg of AD11-CBH diluted in 5 μl of PBS per well of a 384-well plate and vortex briefly. The transfection mixture was incubated at room temperature for 90 min. The transfection complexes were subsequently added to a single well of a 384-well plate containing 3500 128/139 cells. After 3 days the cells were harvested, counted and plated at a density of 1 cell/well in a 96-well plate. A clonal cell line containing Clover and Ruby positive Tau aggregates was selected and termed 416-AD11A cells. Following the expansion of these 416-AD11A cells, a cell lysate was prepared by freeze/thaw. The cells from a confluent T175 flask were harvested in 1 ml of PBS containing 1× protease inhibitor cocktail by scraping. The cell suspension was subjected to 4 cycles of freezing in liquid nitrogen for 5 minutes followed by thawing at 37° C. for 5 minutes. The resulting cell lysate was centrifuged at 2000 RPM for 10 minutes to remove the cell debris and the protein concentration of the resulting 416-AD11A lysate was determined by BCA assay and aliquots frozen for future use.
HEK293 cells stably expressing C-terminally YFP-tagged full length 0N4R-Tau carrying a P301S mutation (T24 cells) are plated at a density of 4000 cells per well of a 384-well black walled, clear bottom plate (Greiner Cat No 5678-1091Q) in 60 μl of complete DMEM (DMEM (Corning Cat No 10-013-CV), 10% FBS (VWR Cat No 97068-085, 0.5% Penicillin/streptomycin (Gibco Cat No 15140-122)) containing 0.1 μg/ml Hoechst Dye (Thermo Scientific Cat No H3570). Transfection complexes are prepared by diluting 0.15 μg of 416-AD11A lysate or HEK lysate in 5 μl of PBS per well to be transfected and 0.15 μl of Lipofectamine 2000 (LF2K) (ThermoFisher Cat No 11668500) in 5 μl of Opti-MEM per well to be transfected in separate tubes. The pre-diluted 416-AD11A or HEK lysates and LF2K are subsequently mixed and allowed to incubate for 90 minutes at RT. A 10 μl aliquot of the 416-AD11A or HEK transfection complexes is added to the appropriate wells of the 384-well plate containing the T24 cells using the Bravo liquid handling platform (Agilent). Wells A23-P24 of the 384-well plate are transfected with HEK lysate to act as a reference point for spontaneous aggregation of 0N4R^P301S and for transfection related toxicity. The dilution of test compounds is performed using the Bravo liquid handling platform (Agilent). The control is DMSO in the absence of any test compound. Briefly, 1 μl of each test compound (5 mM stock) in the 384-well test plate was transferred to a 384-well plate (Greiner Cat No 781280) containing 61.5 μl of complete DMEM to generate a working stock of compounds at 80 μM. […]

SMILES | AD Tau Aggregates (% control)
Cc1ccn(-c2nc(-n3cc4ccn(C(F)(F)F)c4nc3=O)c(-c3ccc(F)cc3)o2)n1 [Compound 241] | 98
CNC(=O)c1ncc2c(-c3ccccc3)nn(-c3ccc(F)cc3)c2n1 [Compound 246] | 120
O=c1nc2c(ccn2C(F)(F)F)cn1-c1nc(N2Cc3ccccc3C2)oc1-c1ccc(F)cc1 [Compound 242] | 99
CCc1ccccc1-c1nn(-c2ccc(F)cc2)c2nc(C(=O)NC)ncc12 [Compound 245] | 120
CNC(=O)c1ncc2c(-c3cccc4c3OC(F)(F)O4)nn(Cc3ccccc3)c2n1 [Compound 254] | 100
Cc1cc(-c2nc(-n3cc4ccn(C5CC5)c4nc3=O)c(-c3ccc(F)c(F)c3)o2)ncc1F [Compound 234] | 85
CNC(=O)c1ncc2c(-c3ccccc3)nn(Cc3ccccc3)c2n1 [Compound 248] | 95
CNC(=O)c1ncc2c(-c3cc4c(cnn4C)cc3F)nn(Cc3ccccc3)c2n1 [Compound 253] | 96
CNC(=O)c1ncc2c(-c3ccc(F)cc3)nn(CC3CCCCC3)c2n1 [Compound 258] | 110
CNC(=O)c1ncc2c(-c3ccccc3Cl)nn(-c3ccc(F)cc3)c2n1 [Compound 244] | 100
Cc1ccnn1-c1nc(-n2cc3ccn(C(F)(F)F)c3nc2=O)c(-c2ccc(F)cc2)o1 [Compound 240] | 95

Further lines, results first:

AD Tau Aggregates (% control) | SMILES
98 | CC(=O)Nc1ncc2c(-c3ccccc3C)nn(Cc3ccccc3)c2n1 [Compound 266]
92 | CC(=O)Nc1ncc2c(-c3ccccc3)nn(Cc3ccncc3)c2n1 [Compound 279]
100 | CCC(=O)Nc1ncc2c(-c3ccccc3)nn(Cc3ccc(OC)cc3)c2n1 [Compound 269]
91 | CC(=O)Nc1ncc2c(-c3ccccc3)nn(Cc3cncc(F)c3)c2n1 [Compound 267]
110 | CC(=O)Nc1ncc2c(-c3ccccc3)nn(C(C)c3ccccc3)c2n1 (stereo not shown) [Compound 265]
90 | CC(=O)Nc1ncc2c(-c3ccccc3)nn(CC3CCCCC3)c2n1 [Compound 280]
94 | COC(=O)Nc1ncc2c(-c3ccccc3)nn(-c3ccccc3)c2n1 [Compound 274]
95 | CNC(=O)c1ncc2c(-c3ccc(F)cc3)nn(Cc3cccc(F)c3)c2n1 [Compound 260]
87 | CNC(=O)c1ncc2c(-c3ccc(F)cc3)nn(Cc3ccc(F)cc3)c2n1 [Compound 261]
99 | CNC(=O)c1ncc2c(-c3ccc(F)cc3)nn(Cc3ccnc(F)c3)c2n1 [Compound 259]
